Measurements published in the supplement of paper PMC12350171.

Assays:
[1] = system: Com21 synthetic gut community; assay: community biomass OD578 after 24 h drug treatment relative to untreated (fraction of untreated control); higher = more community growth; conditions: community: Com21 (Com20 + E. coli ED1a)
Procedure: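 Com21 (Com20 plus E. coli ED1a) was treated with drug for 24 h under anaerobic conditions in mGAM. Community OD578 was then measured and normalised to untreated Com21; mean of 3 biological replicates.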

Bacteroides fragilis NT = assay: IC25 growth inhibition; higher = less potent
How it was run: (§1)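 Under anaerobic conditions, OD578 was read hourly in a plate reader for at least three biological replicates of monocultures grown overnight in mGAM. Each culture started at an OD578 of 0.01 in pre-reduced plates holding twofold drug dilutions and 1% DMSO (or water). IC25 was reported as a tested interval: the lowest concentration where the monotonic median area under the growth curve dropped below the cutoff. That cutoff was 0.75.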

[2] = system: Bacteroides thetaiotaomicron; assay: IC25 growth inhibition; higher = less potent
How it was run: as §1

Bacteroides uniformis = assay: IC25 growth inhibition; higher = less potent
How it was run: as §1

Bacteroides vulgatus = assay: IC25 growth inhibition; higher = less potent
How it was run: as §1

Clostridium bolteae = assay: IC25 growth inhibition; higher = less potent
How it was run: as §1

Clostridium perfringens = assay: IC25 growth inhibition; higher = less potent
How it was run: as §1

Clostridium ramosum = assay: IC25 growth inhibition; higher = less potent
How it was run: as §1

[3] = system: Clostridium saccharolyticum; assay: IC25 growth inhibition; higher = less potent
How it was run: as §1

Collinsella aerofaciens = assay: IC25 growth inhibition; higher = less potent
How it was run: as §1

Coprococcus comes = assay: IC25 growth inhibition; higher = less potent
How it was run: as §1

Dorea formicigenerans = assay: IC25 growth inhibition; higher = less potent
How it was run: as §1

Escherichia coli ED1a = assay: IC25 growth inhibition; higher = less potent
How it was run: as §1

Eubacterium rectale = assay: IC25 growth inhibition; higher = less potent
How it was run: as §1

[4] = system: Fusobacterium nucleatum subsp. Nucleatum; assay: IC25 growth inhibition; higher = less potent
How it was run: as §1

Parabacteroides merdae = assay: IC25 growth inhibition; higher = less potent
How it was run: as §1

Roseburia intestinalis = assay: IC25 growth inhibition; higher = less potent
How it was run: as §1

Ruminococcus gnavus = assay: IC25 growth inhibition; higher = less potent
How it was run: as §1

Shigella flexneri = assay: IC25 growth inhibition; higher = less potent
How it was run: as §1

[5] = system: Streptococcus parasanguinis; assay: IC25 growth inhibition; higher = less potent
How it was run: as §1

Streptococcus salivarius = assay: IC25 growth inhibition; higher = less potent
How it was run: as §1

Vibrio cholerae = assay: IC25 growth inhibition; higher = less potent
How it was run: as §1

[6] = system: Yersinia enterocolitica WA-314; assay: IC25 growth inhibition; higher = less potent
How it was run: as §1

[7] = system: Yersinia pseudotuberculosis; assay: IC25 growth inhibition; higher = less potent
How it was run: as §1

[8] = system: Salmonella enterica typhimurium; assay: IC25 growth inhibition; higher = less potent
How it was run: as §1
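Throughout, for IC25 growth inhibition: lowest concentration where monotonic median growth AUC falls below 0.75 of drug-free control.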

Row | SMILES | community biomass OD578 ([1]; drug pretreatment concentration 10 µM) | community biomass OD578 ([1]; drug pretreatment concentration 20 µM) | community biomass OD578 ([1]; drug pretreatment concentration 40 µM) | community biomass OD578 ([1]; drug pretreatment concentration 80 µM) | community biomass OD578 ([1]; drug pretreatment concentration 160 µM) | IC25 growth inhibition (Bacteroides fragilis NT) [µM] | IC25 growth inhibition [2] [µM] | IC25 growth inhibition (Bacteroides uniformis) [µM] | IC25 growth inhibition (Bacteroides vulgatus) [µM] | IC25 growth inhibition (Clostridium bolteae) [µM] | IC25 growth inhibition (Clostridium perfringens) [µM] | IC25 growth inhibition (Clostridium ramosum) [µM] | IC25 growth inhibition [3] [µM] | IC25 growth inhibition (Collinsella aerofaciens) [µM] | IC25 growth inhibition (Coprococcus comes) [µM] | IC25 growth inhibition (Dorea formicigenerans) [µM] | IC25 growth inhibition (Escherichia coli ED1a) [µM] | IC25 growth inhibition (Eubacterium rectale) [µM] | IC25 growth inhibition [4] [µM] | IC25 growth inhibition (Parabacteroides merdae) [µM] | IC25 growth inhibition (Roseburia intestinalis) [µM] | IC25 growth inhibition (Ruminococcus gnavus) [µM] | IC25 growth inhibition (Shigella flexneri) [µM] | IC25 growth inhibition [5] [µM] | IC25 growth inhibition (Streptococcus salivarius) [µM] | IC25 growth inhibition (Vibrio cholerae) [µM] | IC25 growth inhibition [6] [µM] | IC25 growth inhibition [7] [µM] | IC25 growth inhibition [8] [µM]
1 | Cc1c(N(C)CS(=O)(=O)O)c(=O)n(-c2ccccc2)n1C [Metamizole] | 1 | 0.981 | 1.01 | 1 | 0.994 | – | – | – | – | – | – | – | – | – | – | – | – | – | – | – | – | – | – | – | – | – | – | – | –
2 | Cc1ncc([N+](=O)[O-])n1CCO [Metronidazol] | – | – | – | – | – | < 1.25 | < 1.25 | < 1.25 | < 1.25 | < 1.25 | < 1.25 | < 1.25 | < 1.25 | < 1.25 | < 1.25 | < 1.25 | > 160 | < 1.25 | < 1.25 | < 1.25 | < 1.25 | < 1.25 | > 160 | ≤ 160 | > 160 | ≤ 160 | > 160 | ≤ 160 | –
3 | CC(C)(O)c1ccccc1CC[C@@H](SCC1(CC(=O)O)CC1)c1cccc(/C=C/c2ccc3ccc(Cl)cc3n2)c1 [Montelukast] | – | – | – | – | – | > 40 | > 80 | > 80 | > 80 | > 40 | ≤ 5 | > 10 | > 10 | > 20 | > 80 | > 80 | > 160 | ≤ 10 | > 80 | > 80 | ≤ 10 | > 80 | > 20 | ≤ 10 | ≤ 5 | > 20 | > 10 | > 20 | > 10
4 | CCn1cc(C(=O)O)c(=O)c2ccc(C)nc21 [Nalidixic Acid] | – | – | – | – | – | ≤ 160 | ≤ 160 | ≤ 160 | > 160 | > 160 | ≤ 20 | ≤ 160 | > 160 | > 160 | > 160 | > 160 | ≤ 5 | > 160 | ≤ 160 | ≤ 80 | > 160 | > 160 | ≤ 2.5 | > 160 | > 160 | < 1.25 | > 160 | ≤ 2.5 | ≤ 5
5 | CCn1cc(C(=O)O)c(=O)c2cc(F)c(N3CCNCC3)cc21 [Norfloxacin] | – | – | – | – | – | ≤ 80 | ≤ 80 | ≤ 20 | ≤ 80 | ≤ 20 | ≤ 2.5 | ≤ 160 | ≤ 40 | ≤ 10 | ≤ 20 | ≤ 10 | < 1.25 | ≤ 40 | ≤ 20 | ≤ 40 | ≤ 160 | ≤ 10 | < 1.25 | ≤ 20 | ≤ 10 | < 1.25 | ≤ 10 | ≤ 10 | < 1.25
6 | CO[C@@H]1[C@@H](OC(N)=O)[C@@H](O)[C@H](Oc2ccc3c(O)c(NC(=O)c4ccc(O)c(CC=C(C)C)c4)c(=O)oc3c2C)OC1(C)C [Novobiocin] | – | – | – | – | – | ≤ 20 | ≤ 20 | < 1.25 | < 1.25 | < 1.25 | ≤ 5 | ≤ 5 | ≤ 10 | < 1.25 | < 1.25 | < 1.25 | ≤ 5 | ≤ 5 | ≤ 5 | < 1.25 | < 1.25 | < 1.25 | ≤ 2.5 | < 1.25 | < 1.25 | < 1.25 | ≤ 20 | ≤ 20 | ≤ 40
7 | N=C(N)c1ccc(OCCCCCOc2ccc(C(=N)N)cc2)cc1 [Pentamidine Isothionate] | – | – | – | – | – | ≤ 80 | ≤ 20 | ≤ 20 | ≤ 20 | > 160 | ≤ 2.5 | ≤ 40 | ≤ 10 | ≤ 10 | < 1.25 | < 1.25 | > 160 | ≤ 5 | ≤ 10 | ≤ 5 | ≤ 5 | ≤ 2.5 | ≤ 160 | ≤ 10 | ≤ 10 | > 160 | > 80 | ≤ 160 | –
8 | CN[C@H]1CC[C@@H](c2ccc(Cl)c(Cl)c2)c2ccccc21 [Sertraline] | – | – | – | – | – | ≤ 160 | ≤ 80 | ≤ 160 | > 160 | ≤ 160 | ≤ 80 | ≤ 80 | ≤ 80 | ≤ 80 | ≤ 160 | ≤ 80 | ≤ 160 | ≤ 10 | ≤ 160 | ≤ 80 | ≤ 40 | ≤ 40 | ≤ 160 | ≤ 160 | ≤ 80 | ≤ 80 | ≤ 80 | ≤ 160 | > 160
9 | O=C(O)Cc1cc(I)c(Oc2ccc(O)c(I)c2)c(I)c1 [Tiratricol] | – | – | – | – | – | ≤ 80 | ≤ 80 | ≤ 80 | ≤ 40 | ≤ 80 | ≤ 20 | ≤ 20 | ≤ 20 | ≤ 80 | ≤ 20 | ≤ 80 | > 160 | ≤ 160 | ≤ 40 | ≤ 40 | ≤ 40 | ≤ 20 | > 160 | ≤ 20 | ≤ 10 | ≤ 80 | > 160 | > 160 | > 160
